From paper PMC11459959, “Discovery of new acetamide derivatives of 5-indole-1,3,4-oxadiazol-2-thiol as inhibitors of HIV-1 Tat-mediated viral transcription” (Antimicrobial Agents and Chemotherapy, 2024)

How the values were obtained:
Tat protein [1] = test: Nuclear localization of Tat protein, cell fractionation and western blotting; assay type: cell-based, HIV-1; details: 1.5 μM, transfected cells
Tat protein [2] = test: Tat protein level in transfected HeLa cells, western blotting; details: HeLa cells transfected with pcDNA3-Flag-Tat86, 1.5 µM, 2 days
Experimental: (C) HeLa cells were transfected with pcDNA3-Flag-Tat86 plasmid. […] The levels of Tat protein were analyzed by western blotting using antibodies against Flag and α-tubulin.
The protein levels of the cell lysates were analyzed using western blotting as previously described ([12]). In brief, whole-cell lysates and samples fractionated in nuclear or cytoplasm were prepared with a 5× SDS sample buffer and subsequently subjected to SDS-polyacrylamide gel electrophoresis. Proteins were subsequently transferred onto polyvinylidene difluoride membranes (Millipore).

CDK9/Cyclin T = biological target: T1, CDK9/Cyclin T (Homo sapiens, UniProt P50750); test: CDK9/Cyclin T kinase assay; assay type: biochemical; details: in vitro kinase kit, serial dilutions
T1 construct: purchased BPS Bioscience
T1 sequence (P50750 whole entry): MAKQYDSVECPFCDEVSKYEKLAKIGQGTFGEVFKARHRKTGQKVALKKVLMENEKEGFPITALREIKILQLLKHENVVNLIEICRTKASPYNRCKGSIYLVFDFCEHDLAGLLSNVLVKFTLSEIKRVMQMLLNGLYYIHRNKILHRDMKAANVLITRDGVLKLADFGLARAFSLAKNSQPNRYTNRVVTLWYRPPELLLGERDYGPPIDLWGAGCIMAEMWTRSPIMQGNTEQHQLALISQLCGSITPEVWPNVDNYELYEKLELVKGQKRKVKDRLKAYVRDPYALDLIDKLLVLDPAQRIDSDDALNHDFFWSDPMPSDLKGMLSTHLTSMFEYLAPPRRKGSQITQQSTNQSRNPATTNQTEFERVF
T1 sequence (O60563 whole entry partner): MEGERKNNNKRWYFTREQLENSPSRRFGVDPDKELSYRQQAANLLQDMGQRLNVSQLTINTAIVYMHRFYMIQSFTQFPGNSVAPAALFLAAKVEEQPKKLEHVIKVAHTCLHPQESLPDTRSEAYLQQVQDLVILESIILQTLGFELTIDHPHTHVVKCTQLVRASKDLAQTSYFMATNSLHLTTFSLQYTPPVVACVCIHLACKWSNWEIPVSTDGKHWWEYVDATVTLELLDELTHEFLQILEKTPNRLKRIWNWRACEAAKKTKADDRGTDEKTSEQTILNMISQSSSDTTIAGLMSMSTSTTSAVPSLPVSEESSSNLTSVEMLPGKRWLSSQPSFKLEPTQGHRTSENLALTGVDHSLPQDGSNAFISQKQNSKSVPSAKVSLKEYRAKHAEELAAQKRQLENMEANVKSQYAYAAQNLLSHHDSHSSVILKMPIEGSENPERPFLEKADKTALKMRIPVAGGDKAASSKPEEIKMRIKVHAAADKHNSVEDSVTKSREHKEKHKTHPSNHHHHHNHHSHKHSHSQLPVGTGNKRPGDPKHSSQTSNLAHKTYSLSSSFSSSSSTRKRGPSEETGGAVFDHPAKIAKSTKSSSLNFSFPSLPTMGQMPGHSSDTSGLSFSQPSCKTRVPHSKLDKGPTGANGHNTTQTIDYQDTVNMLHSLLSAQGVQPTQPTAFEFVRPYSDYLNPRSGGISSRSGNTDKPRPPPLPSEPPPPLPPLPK
Experimental: In brief, 12.5 µL of the Master Mix (Kinase Assay Buffer 1 supplemented with ATP and CDK Substrate Peptide 2) was mixed with 2.5 µL of each test compound diluted serially. The mixture was then mixed with CDK9/Cyclin T Kinase (50 ng/10 µL diluted in 1× Kinase Assay Buffer 1) and incubated for 45 min. The kinase activity was measured using Kinase-Glo Max (Promega). A decreased level of luminescence relative to ATP concentration indicated kinase activity, which was expressed as the percent of DMSO control.

[3] = tested on: NRTI-resistant HIV-1 strain 7407; test: microbe, parasite or virus in culture; assay type: cell-based; details: Human immunodeficiency virus 1, TZM-bl
[4] = tested on: PI-resistant HIV-1 strain 11803; test: microbe, parasite or virus in culture; assay type: cell-based; details: Human immunodeficiency virus 1, TZM-bl
[5] = tested on: NRTI-resistant HIV-1 strain 7396; test: microbe, parasite or virus in culture; assay type: cell-based; details: Human immunodeficiency virus 1, TZM-bl
[6] = tested on: PI-resistant HIV-1 strain 11800; test: microbe, parasite or virus in culture; assay type: cell-based; details: Human immunodeficiency virus 1, TZM-bl
[7] = tested on: NRTI-resistant HIV-1 strain 7406; test: microbe, parasite or virus in culture; assay type: cell-based; details: Human immunodeficiency virus 1, TZM-bl

| SMILES | change in nuclear localization of the Tat protein (Tat protein [1]) | decrease of expression of Tat protein (Tat protein [2]) | inhibition of CDK9/Cyclin T kinase activity (CDK9/Cyclin T) | EC50 [3] | EC50 [4] | EC50 [5] | EC50 [6] | EC50 [7] |
| --- | --- | --- | --- | --- | --- | --- | --- | --- |
| Cc1[nH]c2ccc(-c3nnc(SCC(=O)N4CCCC4)o3)cc2c1C [Compound 13, 2-((5-(2,3-Dimethyl-1H-indol-5-yl)-1,3,4-oxadiazol-2-yl)thio)-1-(pyrrolidin-1-yl)ethan-1-one] | no changes were observed | did not exhibit a decrease | did not exhibit | 0.19 ± 0.01 µM | 0.16 ± 0.02 µM | 0.15 ± 0.01 µM | 0.13 ± 0.1 µM | 0.16 ± 0.02 µM |
| Cc1[nH]c2ccc(-c3nnc(SCC(=O)N4CCCCC4)o3)cc2c1C [Compound 9, 2-((5-(2,3-Dimethyl-1H-indol-5-yl)-1,3,4-oxadiazol-2-yl)thio)-1-(piperidin-1-yl)ethan-1-one] | no changes were observed | did not exhibit a decrease | did not exhibit | 0.07 ± 0.01 µM | 0.07 ± 0.01 µM | 0.07 µM | 0.08 ± 0.01 µM | 0.09 ± 0.01 µM |
